Where two headings read alike, the source gives them in different places. Positions of bridges follow the written chain, without caps; N, C: chain ends. Chains are numbered I, II in the order given. No end group written: not given here.
Key:
E. coli strain TG1 = assay: Test of antibacterial activity (colony growth inhibition) on E. coli strain TG1; assay type: cell-based
Protocol: The antimicrobic activity of the peptides in linear form (L1, L4, L5, L6) and in MAP form (M1, M4, M5, M6) was assayed on the TG1 strain of E. coli. The peptides were incubated at various concentrations (2-1-0.5-0.25-0.12 mg/ml) with cells of E. coli (OD600=0.2) for about 1 hour at 37° C. Subsequently, the cells were plated on agar at dilution such to allow counting of individual colonies. The antimicrobic activity of the synthesised peptide L 1 and M1 is shown FIG. 1 and is compared to a non correlated MAP peptide (MNC) used as negative control.
In one example, the tetrabranched MAP peptides with the amino acid sequence: QAKIRVRLSA [SEQ ID NO: 2], KIRVRLSA [SEQ ID NO: 3], QKKIRVRLSA [SEQ ID NO: 4] are used individually in a bacterial colony growth inhibition test. The test is conducted by incubating different concentrations of MAP peptides with E. coli (strain TG1) and plating bacterial cells on agar at a dilution such to allow for individual colonies counting. The following day, the number of colonies grown after treatment with the three MAP peptides is compared.
Antimicrobic tests were conducted incubating for 75 min at 37° C., 25 μL of E. coli at the OD600 of 0.2 with 25 μl of MAP peptide dissolved in PBS at the various concentrations. The different incubations were further diluted 1:1000 in 2×TY medium and 100 μl were plated on solid 2×TY medium. The plates were left overnight at 30° C. and the individual grown colonies were counted and compared with a control, not treated with MAP peptide.

[1] = Stability to plasmatic protease (HPLC); assay type: in vitro ADME, human
Protocol: Since the use of peptides as therapeutic agents is severely limited by their in vivo half-life, the stability to human serum protease of the linear peptide L1 and of the MAP peptides M1, M4, M5 and M6 was evaluated. The peptides were incubated at the concentration of 10 mM with plasma and with human serum for 2 and 24 hours; the samples were subsequently analysed in HPLC on column C18 (see materials and methods) to evaluate the presence of linear and MAP peptide not digested by the protease.
The various peptides in MAP form and the linear peptide (L1) were dissolved in H2O at the concentration of 10 mM and incubated with 10 μl of plasma and human serum for 2 and 24 hours at 37° C. To each sample were added 150 μl of methanol to block the proteolytic reaction; each sample was then centrifuged at 13,000 rpm for 2 min and to the supernatant were added 0.75 ml of 0.1% trifluoroacetic acid. The samples were analysed in reverse phase HPLC on a Vydac C18 semi-preparative column using a 30 min gradient of buffer B from 20% to 95% (buffer A: 0.1% trifluoroacetic acid/water; buffer B: 0.1% trifluoroacetic acid/methanol), to evaluate the presence of linear and MAP peptide after the proteolytic treatment.

[2] = test system: Pseudomonas aeruginosa 891; assay type: cell-based; conditions: 891
From the text: (§1) MIC is defined as the lowest concentration, in an antibiotic dilution range, that inhibits visible bacterial growth. The importance of MIC sensitivity test is based on the principle that in vitro sensitivity provides a predictive indication of the in vivo efficacy of the antibiotic therapy. Values are expressed as molar concentration and compared to MIC values obtained with commercially available antibiotics such as amikacin, ceftriaxone and levofloxacin (Table 3).
(§2) Reference strains (Escherichia coli ATCC 25922, Pseudomonas aeruginosa ATCC 27853, Staphylococus aureus ATCC 25923 and Chryseobacterium meningosepticum CCUG 4310) and several recent clinical isolates (including multidrug-resistant ones) of various species (Table 2) were used for conventional susceptibility testing experiments. Minimum Inhibitory Concentration (MIC) was determined by a standard microdilution assay as recommended by the National Commitee for Clinical Laboratory Standards (NCCLS) using cation-supplemented Mueller-Hinton (MH) broth (Oxoid Ltd. Basingstoke, UK) and a bacterial inoculum of 5×10^4 CFU per well, in a final volume of 100 μl. Results were recorded by visual inspection after 24 h of incubation at 37° C.

[3] = test system: Klebsiella pneumoniae W99FI0057; assay type: cell-based; conditions: W99FI0057
From the text: as §1, §2

[4] = test system: Pseudomonas aeruginosa ATCC27853; assay type: cell-based; conditions: ATCC27853
From the text: as §1, §2

[5] = test system: Staphylococcus aureus ATCC 25923; assay type: cell-based
From the text: as §1, §2

[6] = test system: Pseudomonas aeruginosa 885149; assay type: cell-based; conditions: 885149
From the text: as §1, §2

[7] = test system: Escherichia coli W99FI0077; assay type: cell-based; conditions: W99FI0077
From the text: as §1, §2

[8] = test system: Pichia pastoris yeast strain X33; assay: Effect on Pichia pastoris yeast colonies; assay type: cell-based
Protocol: To a volume of 50 μl of culture of Pichia pastoris grown 24 hour at 30° C. in YPD (Yeast Extract/Peptone/Dextrose) medium, 50 μl of MAP peptides (2 mg/ml) were added and left in incubation 150 min at 37° C. Subsequently, 50 μl of each incubation were plated on YPD solid medium and it was allowed to grow for 48 hours at 30° C. The number of colonies grown was compared with a control, where the yeast was not treated with the MAP.

P. aeruginosa ATCC 27853 = assay: Minimal bactericidal concentration (MBC); assay type: cell-based
Protocol: as §2
(§3) The MBC was determined as recommended by the National Committee for Clinical Laboratory Standards (NCCLS) on strains of E. coli ATCC 25922 and P. aeruginosa ATCC 27853.

E. coli ATCC 25922 = assay: Minimal bactericidal concentration (MBC); assay type: cell-based
Protocol: as §2, §3

[9] = test system: murine macrophage cells J774 A.1; assay: Cytotoxicity test by MTT; assay type: cell-based, mouse
Protocol: The cytotoxicity of antibacterial MAP peptides was evaluated on different eukaryotic cell lines by a colorimetric assay (MTT). This assay measures the cells' ability to convert a soluble tetrazolium salt into an insoluble precipitate: formazan. The cytotoxicity of M1 was evaluated on murine macrophagic cells (J774 A.1), murine myeloma cells (SPO) and Chinese hamster ovary epithelium cells (CHO K1). As shown FIG. 4, even at high concentrations (1 mg/ml) M1 cytotoxicity on CHO K1 cells and on SPO cells is low (percent survival is 80-90%).
For cytotoxicity tests, different cell lines were used: murine myeloma cells SPO, hamster ovary epithelium cells CHO K 1, murine macrophage cells J774 A.1 and human keratinocytes HaCaT. The cells were plated in medium in RPMI 1640 (SPO and CHO K 1) and DMEM (J774 A.1 and HaCaT) with antibiotics and bovine foetal serum at 10%, in 96-well plates at the concentration of 6×10^4 (SPO, CHO K1 and J774 A.1) and 3×10^4 (HaCaT). Peptides, previously filtered with a 0.2 μm filter disk (Whatman), were added at various concentrations to the different cell lines and left in incubation over night at 37° C. Cell viability was determined adding the MTT tetrazolium salt at the concentration of 0.5 mg/ml and incubating for 90 min. The cells were solubilised with a solution at pH 4.5 containing SDS 10% and dimethylformamide 45% and read at the dual wavelength of 595/650 nm with a plate reader.

[10] = test system: Staphylococus aureus MIU-68A; assay type: cell-based, Staphylococcus aureus; conditions: Staphylococus aureus MIU-68A, meticillin-susceptible
From the text: as §1, §2

I: QAKIRVRLSAKKA-OH / II: QAKIRVRLSAK / III: QAKIRVRLSA / IV: QAKIRVRLSA (amide I:11-IV:C, I:12-II:C, II:11-III:C) [M4]
Concentration down to which TG1 E. coli colony growth is prevented (E. coli strain TG1; E. coli TG1, MAP form): less effective | Antibacterial activity on E. coli TG1 colony growth (E. coli strain TG1; E. coli TG1, colony counting vs control without peptide): good antibacterial activity | Resistance to plasmatic protease: Plasma 2 h [1]: + | Resistance to plasmatic protease: Plasma 24 h [1]: + | MIC (Molarity) [2]: 13 µM | MIC (Molarity) [3]: 13 µM | MIC (Molarity) [4]: 6.4 µM | MIC (Molarity) ([5]; ATCC 25923): 1.3e-05 M | MIC (Molarity) ([5]; Staphylococcus aureus ATCC 25923, reference strain, listed as M32 = M4): >1.2e-05 M | MIC (Molarity) ([5]; Staphylococcus aureus ATCC 25923, reference strain, listed as QAKIRVRLSA): ~10^−5 M | MIC (Molarity) [6]: 13 µM | MIC (Molarity) [7]: 3.2 µM | Number of yeast colonies vs negative control [8]: did not differ from the negative control | MBC (minimal concentration able to kill 99.9% of the inoculum) compared with MIC (P. aeruginosa ATCC 27853): equal to the calculated values of MIC | MBC (minimal concentration able to kill 99.9% of the inoculum) compared with MIC (P. aeruginosa ATCC 27853; listed as QAKIRVRLSA): equal to the corresponding MIC values | MBC (minimal concentration able to kill 99.9% of the inoculum) compared with MIC (E. coli ATCC 25922): equal to the calculated values of MIC | MBC (minimal concentration able to kill 99.9% of the inoculum) compared with MIC (E. coli ATCC 25922; listed as QAKIRVRLSA): equal to the corresponding MIC values | Concentration at and over which a drop in cell viability was evident (MTT) [9]: ≥ 250 µg/mL | Vitality of J774 A.1 cells as the concentration of MAP peptides increases (MTT) [9]: decreases | MIC (Molarity) [10]: >26 µM

Source: patent publication US8268961B2, “Antibacterial peptides and analogues thereof” (Universita Degli Studi di Siena, priority 2004, dated 2012)
